Results on 26 compounds are retold here after ChEMBL document CHEMBL5584234, “Small molecules that regulate the N6-methyladenosine RNA modification as potential anti-cancer agents” (Eur J Med Chem, 2024).

Counter-ions that a name gives are not always drawn. Where only a bound is given, the exact number is not on record here.

In experiment [1] the target is T1, Alpha-ketoglutarate-dependent dioxygenase FTO (Homo sapiens, UniProt Q9C0B1).
Experiment [2] has as its target T1, Alpha-ketoglutarate-dependent dioxygenase FTO. The source holds these as a separate data set.
A short description of another experiment: cells. The settings on record: Homo sapiens, AML1.
Another experiment concerns the target RNA demethylase ALKBH5 (Homo sapiens, UniProt Q6P6C2).
Experiment [3] has as its target T2, N6-adenosine-methyltransferase catalytic subunit (Homo sapiens, UniProt Q86U44).
Experiment [4] has as its target T2, N6-adenosine-methyltransferase catalytic subunit. The source holds these as a separate data set.
Experiment [5] has the same target. This is another data set of the same source.
The next experiment relates to Huh-7. As to the kind of experiment: cells. Conditions: Homo sapiens.
Experiment [6] deals with T1, Alpha-ketoglutarate-dependent dioxygenase FTO. This is another data set of the same source.
In experiment [7] the target is N(6)-adenosine-methyltransferase catalytic subunit METTL3 (Mus musculus, UniProt Q8C3P7).
For experiment [8], the target named is T3, METTL3/METTL14 (Homo sapiens, UniProt Q86U44).
Experiment [9] concerns the target T3, METTL3/METTL14. This is another data set of the same source.
Experiment [10] addresses T2, N6-adenosine-methyltransferase catalytic subunit. This is another data set of the same source.
A further experiment deals with ECa-109 cell line. The experiment can be described thus: cells. The settings on record: Homo sapiens, ECa-109, 72 h.
For a further experiment, the system named is HeLa. As to the kind of experiment: cells. The settings on record: Homo sapiens, 24 h.
The test system of another experiment is OCI-AML2. The experiment can be described thus: cells. Conditions: Homo sapiens.
Experiment [11] has as its target YTH domain-containing protein 1 (Homo sapiens, UniProt Q96MU7).
Experiment [12] concerns the target T3, METTL3/METTL14. The source holds these as a separate data set.

A word on the IC50: it is the concentration that gives 50% inhibition. Higher therefore signals weaker potency in that assay. `O=C(O)c1ccccc1-c1c2cc(Cl)c(=O)cc-2oc2cc(O)c(Cl)cc12` gave an IC50 in experiment [1] of 640 nM.
With `O=C(O)CC[C@@H](O)C(=O)O`, in [2], the IC50 worked out at 133000 nM.
What is called GI50 is the concentration at which growth is held to half of that of the control. On to `Cc1noc(C)c1-c1cc(Cl)c(Nc2ccccc2C(=O)NO)c(Cl)c1`, for which, in “cells”, growth was halved (GI50) at 800 nM.
`Cc1noc(C)c1-c1cc(Cl)c(Nc2ccccc2C(=O)O)c(Cl)c1` displayed a GI50 in “cells” of 23000 nM.
At RNA demethylase ALKBH5, `CCCc1c(C)nc2c3ccccc3oc(=S)n12` yielded an IC50 of 10000 nM.
For `Cn1ccc(-c2cn([C@@H]3O[C@H](COc4ccc5ccc(N6CCC6)nc5c4)[C@@H](O)[C@@H]3F)c3ncnc(N)c23)n1`, the IC50 in experiment [3] is under 10 nM; in experiment [4] it was under 10 nM; in experiment [5], under 1000 nM. Also, the 50% growth inhibitory concentration (GI50) in the experiment on Huh-7 was under 1000 nM.
For the compound `CCc1cc(N(C)CCOC)c2ccc(CCc3cncc(-n4cc(-c5ccn(C)n5)c5c(N)ncnc54)c3)cc2n1`, the IC50 in [3] was under 10 nM; in experiment [4] it was under 10 nM; in experiment [5], under 1000 nM. This compound came in with a concentration for 50% growth inhibition (GI50) in the experiment on Huh-7 of under 1000 nM.
In experiment [6], `Nc1ncnc2c1ncn2[C@@H]1O[C@H](C(=O)NCCCNC(=O)c2ccccn2)[C@@H](O)[C@H]1O` yielded an IC50 of 1500 nM.
`O=C(NCc1cn2cc(CNCC3CCCCC3)ccc2n1)c1cc(=O)n2ccccc2n1`: the concentration for half-maximal inhibition (IC50) in [7] amounted to 2810 nM. In addition, growth in the experiment with Huh-7 was halved (GI50) at 600 nM.
The compound `COc1cc(-c2cn(Cc3cn4cc(CNCC5CCC5)ccc4n3)nn2)c2cn[nH]c2c1` came in with an IC50 against METTL3/METTL14 [8] of under 5 nM. The compound also showed a 50% growth inhibitory concentration (GI50) in the experiment with Huh-7 of 160 nM.
As to `CC1(C)CCN(Cc2ccc3nc(Cn4cc(-c5cc(Br)cc6[nH]ncc56)nn4)cn3c2)CC1`, the IC50 against METTL3/METTL14 [8] came out at 8 nM.
`Clc1cc(-c2cn(Cc3cn4cc(CNCC5CCC5)ccc4n3)nn2)c2cn[nH]c2c1`: the IC50 against METTL3/METTL14 [9] is 25 nM; at METTL3/METTL14 [8], under 5 nM. For the same compound, the 50% growth inhibitory concentration (GI50) in the experiment on Huh-7 was 210 nM.
Consider `O=C(O)c1ccccc1OCCc1cn(-c2ccc(-c3c(Cl)cccc3Cl)cc2)c2ccc(-c3ccc(F)cc3)cc12`, for which the IC50 turned out to be 2810 nM in experiment [4], 4000 nM in [5] and 4000 nM in [10]. Moreover, in the experiment with Huh-7, growth was halved (GI50) at 14600 nM.
`CCOC(=O)c1ccccc1Nc1c(Cl)ccc(C)c1Cl` came in with a half-inhibitory concentration (IC50) in experiment [3] of 7000 nM.
The compound `COc1ncc(-c2ccc3sc(N)nc3c2)cn1` returned an IC50 in experiment [2] of 3400 nM.
Turning to `COc1c(C)cnc(Cn2cc(CNC(=O)c3c(F)c(F)c(F)c(F)c3F)nn2)c1C`, 830 nM corresponded to half-maximal inhibition with ECa-109 cell line (IC50).
Regarding `CCS(=O)(=O)Nc1oc(-c2ccc(Cl)cc2)c(O)c1O`, it took 8700 nM to reach half-maximal inhibition with HeLa (IC50).
Regarding `C(=N\NC1=NCCN1)/c1c2ccccc2c(/C=N/NC2=NCCN2)c2ccccc12` [BISANTRENE], the IC50 in the experiment on OCI-AML2 worked out at 100 nM.
Still for that read-out and setting: the figure for `Cc1c(-c2ccc(-c3ccccc3F)cc2)nc2ccc(F)cc2c1C(=O)O` [BREQUINAR] is 200 nM.
Compound `CC(=O)Oc1cccc2c1C(=O)c1c(OC(C)=O)cc(C(=O)O)cc1C2=O` [DIACEREIN] showed a 50% inhibitory concentration (IC50) in [6] of 1500 nM.
`O=c1c2ccccc2[se]n1-c1ccccc1` [EBSELEN] gave an IC50 in [11] of 1600 nM.
Consider `Cc1ccc(Cl)c(Nc2ccccc2C(=O)O)c1Cl` [MECLOFENAMIC ACID], for which the concentration for half-maximal inhibition (IC50) in experiment [3] came to 8000 nM.
On to `N=C(N)c1ccc2cc(OC(=O)c3ccc(N=C(N)N)cc3)ccc2c1` [NAFAMOSTAT MESYLATE], for which, in experiment [6], half-maximal inhibition (IC50) required 13800 nM.
Consider `Nc1ncnc2c1ncn2[C@@H]1O[C@H](CSCC[C@H](N)C(=O)O)[C@@H](O)[C@H]1O` [S-ADENOSYLHOMOCYSTEINE], for which the IC50 against METTL3/METTL14 [12] is 520 nM.
As for `O=C(O)[C@H]1O[C@@H](Oc2cc3oc(-c4ccc(O)cc4)cc(=O)c3c(O)c2O)[C@H](O)[C@@H](O)[C@@H]1O` [SCUTELLARIN], the IC50 on METTL3/METTL14 [8] was determined as 19900 nM.
Consider `Nc1ncnc2c1ncn2[C@@H]1O[C@H](C[C@@H](N)CC[C@H](N)C(=O)O)[C@@H](O)[C@H]1O` [SINEFUNGIN], for which, at METTL3/METTL14 [12], the IC50 worked out at 1300 nM. The compound further showed a GI50 in the experiment on Huh-7 of 24800 nM.
